# Results published in patent US7745646B2, “Bicyclic heteroaryl inhibitors of PDE4” (Kalypsys, Inc., priority 2006, dated 2010).
# Biological target: T1, PDE4B (Homo sapiens, UniProt Q07343)
# T1 construct: hex-histidine (His6) (N); made in house
# Assay: Novel coupled PDE/AK bioluminescent assay, PDE4B inhibition
# Assay type: biochemical
# Conditions: PDE4B catalytic domain
# Source text: We developed a novel coupled PDE/AK bioluminescent high-throughput assay to measure the activity of phosphodiesterases. In the PDE/AK assay, the AMP produced from the hydrolysis of cAMP by phosphodiesterase is converted to adenosine diphosphate (ADP) by the phosphotransferase activity of adenylate kinase (also known as ADK or myokinase). Adenylate kinase will catalyze the conversion of 1 mole of AMP and 1 mole of ATP into 2 moles of ADP. Thus the conversion of AMP to ADP will result in the subsequent loss of ATP. The decrease in ATP concentration can be monitored as light output using luciferase in a reaction that requires ATP to produce light. The PDE/AK assay uses luciferase, which catalyzes the production of light from ATP present in the reaction mix. The amount of emitted light is inversely proportional to the level of AMP present in the reaction. Test compounds are incubated with the phosphodiesterases and phosphodiesterase inhibitors will decrease the rate of cAMP hydrolysis and decrease the subsequent production of AMP.
# A novel coupled PDE/AK assay was utilized to measure the inhibitory activity of compounds on PDE isoforms. The catalytic domain of PDE4B was fused to an amino-terminus hex-histidine affinity tag and purified. PDE4B enzyme was incubated with compounds for 10 minutes. Cyclic AMP substrate, ATP and adenylate kinase were then added to the PDE enzyme mix and incubated for 45 minutes at room temperature. A commercial ATP detection assay, Perkin Elmer's easyLite ATP detection reagent, was then added to measure the relative amount of ATP present in the reaction. After 10 minute incubation, the luminescent signal was quantitated with either the Perkin Elmer Viewlux or Molecular Devices Acquest or Analyst.
# T1 sequence (Q07343 330-659 limits assumed, species assumed): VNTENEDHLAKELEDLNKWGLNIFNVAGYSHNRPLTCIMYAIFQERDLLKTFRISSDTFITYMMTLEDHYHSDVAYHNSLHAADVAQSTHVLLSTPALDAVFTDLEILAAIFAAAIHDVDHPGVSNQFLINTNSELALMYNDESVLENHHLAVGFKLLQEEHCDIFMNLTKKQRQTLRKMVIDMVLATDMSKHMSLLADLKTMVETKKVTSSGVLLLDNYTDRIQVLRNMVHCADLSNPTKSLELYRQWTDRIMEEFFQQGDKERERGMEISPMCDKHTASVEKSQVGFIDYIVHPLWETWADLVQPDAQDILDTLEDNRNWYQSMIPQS
row,SMILES,IC50 [nM]
1,"COc1ccc2c(Nc3c(Cl)cncc3Cl)c(O)c(=O)oc2c1OC1CCCC1 [Example 4, 8-(Cyclopentyloxy)-4-(3,5-dichloropyridin-4-ylamino)-3-hydroxy-7-methoxy-2H-chromen-2-one]",> 1000
2,"CCOC(=O)CNc1cc(=O)oc2c(OC3CCCC3)c(OC)ccc12 [Example 8, Ethyl 2-(8-(cyclopentyloxy)-7-methoxy-2-oxo-2H-chromen-4-ylamino)acetate]",> 1000
3,"COc1ccc2c(Nc3c(Cl)cncc3Cl)cc(=O)oc2c1OC/C=C\CO [Example 76, (Z)-4-(3,5-Dichloropyridin-4-ylamino)-8-(4-hydroxybut-2-enyloxy)-7-methoxy-2H-chromen-2-one]",< 1000
4,"COC(=O)c1cccc(Cl)c1Nc1cc(=O)oc2c(OC3CCCC3)c(OC)ccc12 [Example 20, Methyl 3-chloro-2-(8-(cyclopentyloxy)-7-methoxy-2-oxo-2H-chromen-4-ylamino)benzoate]",> 1000
5,"COc1ccc2c(Nc3c(Cl)cncc3Cl)cc(=O)oc2c1O[C@@H]1O[C@H](COC(C)=O)[C@@H](OC(C)=O)[C@H](OC(C)=O)[C@H]1OC(C)=O [Example 60, (2R,3R,4S,5R,6S)-2-(Acetoxymethyl)-6-(4-(3,5-dichloropyridin-4-ylamino)-7-methoxy-2-oxo-2H-chromen-8-yloxy)tetrahydro-2H-pyran-3,4,5-triyl triacetate]",< 1000
6,"COc1ccc2c(Nc3c(Cl)cncc3Cl)cc(=O)oc2c1OCCCCBr [Example 25, 8-(4-Bromobutoxy)-4-(3,5-dichloropyridin-4-ylamino)-7-methoxy-2H-chromen-2-one]",< 1000
7,"COc1ccc2c(Nc3c(Cl)cncc3Cl)cc(=O)oc2c1OCCCCN1CCOCC1 [Example 71, 4-(3,5-Dichloropyridin-4-ylamino)-7-methoxy-8-(4-morpholinobutoxy)-2H-chromen-2-one]",< 1000
8,"COc1ccc2c(Nc3c(Cl)cncc3Cl)cc(=O)oc2c1OCCCCCBr [Example 28, 8-(5-Bromopentyloxy)-4-(3,5-dichloropyridin-4-ylamino)-7-methoxy-2H-chromen-2-one]",< 1000
9,"COc1ccc2c(Nc3c(Cl)cncc3Cl)cc(=O)oc2c1OCCCCCC(=O)O [Example 44, 6-(4-(3,5-Dichloropyridin-4-ylamino)-7-methoxy-2-oxo-2H-chromen-8-yloxy)hexanoic acid]",< 1000
10,"COc1ccc2c(Nc3c(Cl)cncc3Cl)cc(=O)oc2c1OCCCCCC(=O)NO [Example 84, 6-(4-(3,5-Dichloropyridin-4-ylamino)-7-methoxy-2-oxo-2H-chromen-8-yloxy)-N-hydroxyhexanamide]",< 1000
11,"COc1ccc2c(Nc3c(Cl)cncc3Cl)cc(=O)oc2c1OCCCCCC(=O)N[C@@H](C)C(=O)O [Example 97, (S)-2-(6-(4-(3,5-Dichloropyridin-4-ylamino)-7-methoxy-2-oxo-2H-chromen-8-yloxy)hexanamido)propanoic acid]",< 1000
12,"COc1ccc2c(Nc3c(Cl)cncc3Cl)cc(=O)oc2c1OCCCCCC(N)=O [Example 78, 6-(4-(3,5-Dichloropyridin-4-ylamino)-7-methoxy-2-oxo-2H-chromen-8-yloxy)hexanamide]",< 1000
13,"COc1ccc2c(Nc3c(Cl)cncc3Cl)cc(=O)oc2c1OCCCCN1CCN(C)CC1 [Example 70, 4-(3,5-Dichloropyridin-4-ylamino)-7-methoxy-8-(4-(4-methylpiperazin-1-yl)butoxy)-2H-chromen-2-one]",< 1000
14,"COc1ccc2c(Nc3c(Cl)cncc3Cl)cc(=O)oc2c1OCCCCCCN(C)C [Example 79, 4-(3,5-Dichloropyridin-4-ylamino)-8-(6-(dimethylamino)hexyloxy)-7-methoxy-2H-chromen-2-one]",< 1000

# More lines, now with the values ahead:
row,IC50 [nM],SMILES
1,< 1000,"COc1ccc2c(Nc3c(Cl)cncc3Cl)cc(=O)oc2c1OCC1CC1 [Example 5, 8-(Cyclopropylmethoxy)-4-(3,5-dichloropyridin-4-ylamino)-7-methoxy-2H-chromen-2-one]"
2,< 1000,"COc1ccc2c(Nc3c(Cl)cccc3Cl)cc(=O)oc2c1OC1CCCC1 [Example 1, 8-(Cyclopentyloxy)-4-(2,6-dichlorophenylamino)-7-methoxy-2H-chromen-2-one]"
3,< 1000,"COc1ccc2c(Nc3c(Cl)cncc3Cl)cc(=O)oc2c1OCCCCCCCC(=O)O [Example 66, 8-(4-(3,5-Dichloropyridin-4-ylamino)-7-methoxy-2-oxo-2H-chromen-8-yloxy)octanoic acid]"
4,< 1000,"COc1ccc2c(Nc3c(Cl)cncc3Cl)cc(=O)oc2c1OCCc1ccccc1 [Example 41, 4-(3,5-Dichloropyridin-4-ylamino)-7-methoxy-8-phenethoxy-2H-chromen-2-one]"
5,< 1000,"COc1ccc2c(Nc3c(Cl)cncc3Cl)cc(=O)oc2c1OCCCCCN(C)CCN(C)C [Example 93, 4-(3,5-Dichloropyridin-4-ylamino)-8-(5-((2-(dimethylamino)ethyl)(methyl)amino)pentyloxy)-7-methoxy-2H-chromen-2-one]"
6,< 1000,"COc1ccc2c(Nc3c(Cl)cncc3Cl)cc(=O)oc2c1OCc1cccc([N+](=O)[O-])c1 [Example 34, 4-(3,5-Dichloropyridin-4-ylamino)-7-methoxy-8-(3-nitrobenzyloxy)-2H-chromen-2-one]"
7,< 1000,"COc1ccc2c(Nc3c(C)cccc3Cl)cc(=O)oc2c1OC1CCCC1 [Example 18, 4-(2-Chloro-6-methylphenylamino)-8-(cyclopentyloxy)-7-methoxy-2H-chromen-2-one]"
8,< 1000,"COc1ccc2c(Cc3c(Cl)cncc3Cl)cc(=O)oc2c1OC1CCCC1 [Example 2, 8-(Cyclopentyloxy)-4-[(3,5-dichloropyridin-4-yl)methyl]-7-methoxy-2H-chromen-2-one]"
9,< 1000,"COc1ccc2c(Nc3c(Cl)cncc3Cl)c(F)c(=O)oc2c1OC1CCCC1 [Example 14, 8-(Cyclopentyloxy)-4-(3,5-dichloropyridin-4-ylamino)-3-fluoro-7-methoxy-2H-chromen-2-one]"
10,< 1000,"C=C(OCC)c1cncc(Cl)c1Nc1cc(=O)oc2c(OC3CCCC3)c(OC)ccc12 [Example 15, 4-(3-Chloro-5-(1-ethoxyvinyl)pyridin-4-ylamino)-8-(cyclopentyloxy)-7-methoxy-2H-chromen-2-one]"
11,< 1000,"COc1ccc2c(Nc3c(Cl)cncc3Cl)cc(=O)oc2c1OC1CCCC1 [Example 3, 8-(Cyclopentyloxy)-4-(3,5-dichloropyridin-4-ylamino)-7-methoxy-2H-chromen-2-one]"
12,< 1000,"COc1ccc2c(Nc3ccccc3Cl)cc(=O)oc2c1OCC1CC1 [Example 24, 4-(2-Chlorophenylamino)-8-(cyclopropylmethoxy)-7-methoxy-2H-chromen-2-one]"
13,< 1000,"COc1ccc2c(Nc3c(Cl)cncc3Cl)cc(=O)oc2c1OCCCCCc1nn[nH]n1 [Example 63, 8-(5-(2H-Tetrazol-5-yl)pentyloxy)-4-(3,5-dichloropyridin-4-ylamino)-7-methoxy-2H-chromen-2-one]"

# Tested on: Lacrimal Gland Inflammation-Induced Dry Eye in Rabbits
# Assay: Lacrimal Gland Inflammation-Induced Dry Eye in Rabbits
# Assay type: in vivo
# Conditions: 1 percent, topical ocular BID, rabbit dry eye
# Source text: A more detailed description of the assay used herein may be found in Naglehout, T J et al. 2005, “Preservation of Tear Film Integrity and Inhibition of Corneal Injury by Dexamethasone in a Rabbit Model of Lacrimal Gland Inflammation-Induced Dry Eye,” J. Ocular Pharm. Ther., 21:2. 139-148, the disclosure of which is hereby incorporated by reference as if written herein in its entirety.
# Rabbits (n=4/group) were randomized into treatment groups and dosed topically BID with maxidex vehicle or test drug beginning one day prior to initiation of dry eye. Each rabbit received bilateral lacrimal gland injections of saline or ConA (300 μg/30 μl) and topical ocular dosing was continued BID throughout the study.
# Desiccation was initiated 1-2 hours following lacrimal gland injection by placing conscious rabbits in the environmental chamber (10-15% humidity/72° F.). […] Absorbance of the extracted dye was determined at 660 nm.
# TBUT was quantified in a separate group of treated animals. TBUT was determined by instilling 5 μL sodium fluorescein into the cul de sac and manually blinking the lids to distribute the fluorescein within the tear film. Under slit lamp observation, the eye was held open and the time whereby one or more black spots or streaks appeared in the precorneal tear film was recorded. […]
row,SMILES,Activity at Percent Concentration Tested
1,"COc1ccc2c(Nc3c(Cl)cncc3Cl)cc(=O)oc2c1OCC1CC1 [Example 5, 8-(Cyclopropylmethoxy)-4-(3,5-dichloropyridin-4-ylamino)-7-methoxy-2H-chromen-2-one]",Inactive
2,"COc1ccc2c(Nc3c(Cl)cncc3Cl)cc(=O)oc2c1OC1CCCC1 [Example 3, 8-(Cyclopentyloxy)-4-(3,5-dichloropyridin-4-ylamino)-7-methoxy-2H-chromen-2-one]",Inactive
